Measured values as given in the NIST ThermoML archive (doi:10.1021/acs.jced.7b00773).
Numbers after ± are expanded uncertainties.

Details: Liquid; for viscosity: Concentric cylinders viscometry

CCn1cc[n+](C)c1.N#C[B-](C#N)(C#N)C#N [1-ethyl-3-methylimidazolium tetracyanoborate]
100 kPa
Details	viscosity [mPa·s]
293.15 K	22.11 ± 1
303.15 K	15.38 ± 0.71
313.15 K	11.23 ± 0.52
323.15 K	8.55 ± 0.4
333.15 K	6.751 ± 0.31
343.15 K	5.473 ± 0.25
353.15 K	4.537 ± 0.21
363.15 K	3.833 ± 0.18
373.15 K	3.289 ± 0.15

Details	mass density [kg/m3]
293.15 K, 100 kPa, Vibrating tube method	1040.5 ± 2.3
303.15 K, 100 kPa, Vibrating tube method	1032.7 ± 2.3
311.8 K, 10000 kPa, Bellows volumetry	1031.2 ± 2.6
311.8 K, 20000 kPa, Bellows volumetry	1036.6 ± 2.6
311.8 K, 30000 kPa, Bellows volumetry	1041.7 ± 2.6
311.8 K, 40000 kPa, Bellows volumetry	1046.6 ± 2.6
311.8 K, 50000 kPa, Bellows volumetry	1051.3 ± 2.6
311.8 K, 60000 kPa, Bellows volumetry	1055.9 ± 2.6
311.8 K, 70000 kPa, Bellows volumetry	1060.3 ± 2.6
311.8 K, 80000 kPa, Bellows volumetry	1064.6 ± 2.6
311.8 K, 90000 kPa, Bellows volumetry	1068.7 ± 2.6
311.8 K, 100000 kPa, Bellows volumetry	1072.8 ± 2.6
311.8 K, 110000 kPa, Bellows volumetry	1076.8 ± 2.6
311.8 K, 120000 kPa, Bellows volumetry	1080.6 ± 2.6
311.8 K, 130000 kPa, Bellows volumetry	1084.3 ± 2.6
311.8 K, 140000 kPa, Bellows volumetry	1088 ± 2.6
311.8 K, 150000 kPa, Bellows volumetry	1091.6 ± 2.6
311.8 K, 160000 kPa, Bellows volumetry	1095.1 ± 2.6
311.8 K, 170000 kPa, Bellows volumetry	1098.5 ± 2.6
311.8 K, 180000 kPa, Bellows volumetry	1101.9 ± 2.6
311.8 K, 190000 kPa, Bellows volumetry	1105.1 ± 2.6
311.8 K, 200000 kPa, Bellows volumetry	1108.5 ± 2.6
313.15 K, 100 kPa, Vibrating tube method	1024.9 ± 2.3
323.15 K, 100 kPa, Vibrating tube method	1017.2 ± 2.3
331.7 K, 10000 kPa, Bellows volumetry	1016.3 ± 2.6
331.7 K, 20000 kPa, Bellows volumetry	1021.9 ± 2.6
331.7 K, 30000 kPa, Bellows volumetry	1027.4 ± 2.6
331.7 K, 40000 kPa, Bellows volumetry	1032.6 ± 2.6
331.7 K, 50000 kPa, Bellows volumetry	1037.5 ± 2.6
331.7 K, 60000 kPa, Bellows volumetry	1042.3 ± 2.6
331.7 K, 70000 kPa, Bellows volumetry	1046.9 ± 2.6
331.7 K, 80000 kPa, Bellows volumetry	1051.4 ± 2.6
331.7 K, 90000 kPa, Bellows volumetry	1055.7 ± 2.6
331.7 K, 100000 kPa, Bellows volumetry	1059.9 ± 2.6
331.7 K, 110000 kPa, Bellows volumetry	1064 ± 2.6
331.7 K, 120000 kPa, Bellows volumetry	1068 ± 2.6
331.7 K, 130000 kPa, Bellows volumetry	1071.9 ± 2.6
331.7 K, 140000 kPa, Bellows volumetry	1075.6 ± 2.6
331.7 K, 150000 kPa, Bellows volumetry	1079.2 ± 2.6
331.7 K, 160000 kPa, Bellows volumetry	1082.9 ± 2.6
331.7 K, 170000 kPa, Bellows volumetry	1086.4 ± 2.6
331.7 K, 180000 kPa, Bellows volumetry	1089.9 ± 2.6
331.7 K, 190000 kPa, Bellows volumetry	1093.3 ± 2.6
331.7 K, 200000 kPa, Bellows volumetry	1096.7 ± 2.6
333.15 K, 100 kPa, Vibrating tube method	1009.6 ± 2.3
343.15 K, 100 kPa, Vibrating tube method	1002 ± 2.3
351.8 K, 10000 kPa, Bellows volumetry	1001.6 ± 2.6
351.8 K, 20000 kPa, Bellows volumetry	1007.5 ± 2.6
351.8 K, 30000 kPa, Bellows volumetry	1013.3 ± 2.6
351.8 K, 40000 kPa, Bellows volumetry	1018.7 ± 2.6
351.8 K, 50000 kPa, Bellows volumetry	1024 ± 2.6
351.8 K, 60000 kPa, Bellows volumetry	1029 ± 2.6
351.8 K, 70000 kPa, Bellows volumetry	1033.8 ± 2.6
351.8 K, 80000 kPa, Bellows volumetry	1038.5 ± 2.6
351.8 K, 90000 kPa, Bellows volumetry	1043 ± 2.6
351.8 K, 100000 kPa, Bellows volumetry	1047.3 ± 2.6
351.8 K, 110000 kPa, Bellows volumetry	1051.5 ± 2.6
351.8 K, 120000 kPa, Bellows volumetry	1055.7 ± 2.6
351.8 K, 130000 kPa, Bellows volumetry	1059.7 ± 2.6
351.8 K, 140000 kPa, Bellows volumetry	1063.6 ± 2.6
351.8 K, 150000 kPa, Bellows volumetry	1067.4 ± 2.6
351.8 K, 160000 kPa, Bellows volumetry	1071.2 ± 2.6
351.8 K, 170000 kPa, Bellows volumetry	1074.8 ± 2.6
351.8 K, 180000 kPa, Bellows volumetry	1078.4 ± 2.6
351.8 K, 190000 kPa, Bellows volumetry	1081.9 ± 2.6
351.8 K, 200000 kPa, Bellows volumetry	1085.3 ± 2.6
353.15 K, 100 kPa, Vibrating tube method	994.8 ± 2.3
363.15 K, 100 kPa, Vibrating tube method	987.5 ± 2.3
372 K, 10000 kPa, Bellows volumetry	987.2 ± 2.6
372 K, 20000 kPa, Bellows volumetry	993.6 ± 2.6
372 K, 30000 kPa, Bellows volumetry	999.6 ± 2.6
372 K, 40000 kPa, Bellows volumetry	1005.4 ± 2.6
372 K, 50000 kPa, Bellows volumetry	1010.8 ± 2.6
372 K, 60000 kPa, Bellows volumetry	1016 ± 2.6
372 K, 70000 kPa, Bellows volumetry	1021 ± 2.6
372 K, 80000 kPa, Bellows volumetry	1025.9 ± 2.6
372 K, 90000 kPa, Bellows volumetry	1030.5 ± 2.6
372 K, 100000 kPa, Bellows volumetry	1035.1 ± 2.6
372 K, 110000 kPa, Bellows volumetry	1039.5 ± 2.6
372 K, 120000 kPa, Bellows volumetry	1043.8 ± 2.6
372 K, 130000 kPa, Bellows volumetry	1048 ± 2.6
372 K, 140000 kPa, Bellows volumetry	1052.1 ± 2.6
372 K, 150000 kPa, Bellows volumetry	1055.9 ± 2.6
372 K, 160000 kPa, Bellows volumetry	1059.8 ± 2.6
372 K, 170000 kPa, Bellows volumetry	1063.5 ± 2.6
372 K, 180000 kPa, Bellows volumetry	1067.2 ± 2.6
372 K, 190000 kPa, Bellows volumetry	1070.9 ± 2.6
372 K, 200000 kPa, Bellows volumetry	1074.4 ± 2.6
373.15 K, 100 kPa, Vibrating tube method	980.3 ± 2.3
392.1 K, 10000 kPa, Bellows volumetry	973 ± 2.6
392.1 K, 20000 kPa, Bellows volumetry	979.8 ± 2.6
392.1 K, 30000 kPa, Bellows volumetry	986.2 ± 2.6
392.1 K, 40000 kPa, Bellows volumetry	992.2 ± 2.6
392.1 K, 50000 kPa, Bellows volumetry	998 ± 2.6
392.1 K, 60000 kPa, Bellows volumetry	1003.4 ± 2.6
392.1 K, 70000 kPa, Bellows volumetry	1008.6 ± 2.6
392.1 K, 80000 kPa, Bellows volumetry	1013.8 ± 2.6
392.1 K, 90000 kPa, Bellows volumetry	1018.6 ± 2.6
392.1 K, 100000 kPa, Bellows volumetry	1023.3 ± 2.6
392.1 K, 110000 kPa, Bellows volumetry	1028 ± 2.6
392.1 K, 120000 kPa, Bellows volumetry	1032.4 ± 2.6
392.1 K, 130000 kPa, Bellows volumetry	1036.6 ± 2.6
392.1 K, 140000 kPa, Bellows volumetry	1040.8 ± 2.6
392.1 K, 150000 kPa, Bellows volumetry	1044.9 ± 2.6
392.1 K, 160000 kPa, Bellows volumetry	1048.8 ± 2.6
392.1 K, 170000 kPa, Bellows volumetry	1052.8 ± 2.6
392.1 K, 180000 kPa, Bellows volumetry	1056.5 ± 2.6
392.1 K, 190000 kPa, Bellows volumetry	1060.2 ± 2.6
392.1 K, 200000 kPa, Bellows volumetry	1063.9 ± 2.6
412.2 K, 10000 kPa, Bellows volumetry	959.2 ± 2.6
412.2 K, 20000 kPa, Bellows volumetry	966.3 ± 2.6
412.2 K, 30000 kPa, Bellows volumetry	973 ± 2.6
412.2 K, 40000 kPa, Bellows volumetry	979.4 ± 2.6
412.2 K, 50000 kPa, Bellows volumetry	985.4 ± 2.6
412.2 K, 60000 kPa, Bellows volumetry	991.1 ± 2.6
412.2 K, 70000 kPa, Bellows volumetry	996.6 ± 2.6
412.2 K, 80000 kPa, Bellows volumetry	1001.9 ± 2.6
412.2 K, 90000 kPa, Bellows volumetry	1007 ± 2.6
412.2 K, 100000 kPa, Bellows volumetry	1011.9 ± 2.6
412.2 K, 110000 kPa, Bellows volumetry	1016.6 ± 2.6
412.2 K, 120000 kPa, Bellows volumetry	1021.2 ± 2.6
412.2 K, 130000 kPa, Bellows volumetry	1025.7 ± 2.6
412.2 K, 140000 kPa, Bellows volumetry	1030 ± 2.6
412.2 K, 150000 kPa, Bellows volumetry	1034.1 ± 2.6
412.2 K, 160000 kPa, Bellows volumetry	1038.2 ± 2.6
412.2 K, 170000 kPa, Bellows volumetry	1042.2 ± 2.6
412.2 K, 180000 kPa, Bellows volumetry	1046.1 ± 2.6
412.2 K, 190000 kPa, Bellows volumetry	1049.9 ± 2.6
412.2 K, 200000 kPa, Bellows volumetry	1053.6 ± 2.6
